The data set can be described thus: Intrauterine injection of pure N2O gas in anaesthetized pigs, N2O detected in expired breath. It is filed as in vivo. The settings on record: anaesthetized pig. How it is done: Pure nitrous oxide (N2O) gas was injected into the uterine cavities of 2 anaesthetized pigs with open uterine tubes and surgically ligated uterine tubes, respectively. Said N2O was detected every second in the expired breath by means of a conventional N2O detector.
The results are shown in FIGS. 1 and 2, where FIG. 1 is a concentration versus time graph and FIG. 2 is a cumulative concentration versus time graph, the upper curves representing closed uterine tubes and the lower curves representing open uterine tubes.
Furthermore, there was a clear difference between the two curves versus time which enables a monitoring of fallopian tube abnormalities as claimed by the present invention.

Molecules are shown by their SMILES.

In the case of `[N-]=[N+]=O` [nitrous oxide], the “time to maximum concentration in the exhaled air” value (open uterine tubes, intrauterine injection of pure N2O gas) is “approximately 2 minutes”. Further, the “maximum concentration in the exhaled air” value (open uterine tubes, pure N2O gas injected into uterine cavity, detected every second in expired breath) is “approximately 40 ppm”. Further, the “maximum concentration in the exhaled air, closed tubes relative to open tubes (higher)” value (surgically ligated (closed) uterine tubes versus open uterine tubes) is “approximately 50%”.
